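How tested: cells in 96-well plates exposed to compound for 48 hours at five concentrations. TGI marks complete inhibition of growth.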
Experiments:
Assay in all cases: growth of human tumour cells (NCI), 48 h
SR leukemia = test system: SR leukemia
UACC-257 melanoma = test system: UACC-257 melanoma
KM12 colon = test system: KM12 colon
HOP-62 NSCLC = test system: HOP-62 NSCLC
MDA-N = test system: MDA-N
MDA-MB-231 breast = test system: MDA-MB-231 breast
MALME-3M melanoma = test system: MALME-3M melanoma
HL-60(TB) leukemia = test system: HL-60(TB) leukemia
SF-295 CNS = test system: SF-295 CNS
SF-539 CNS = test system: SF-539 CNS
NCI/ADR-RES ovarian = test system: NCI/ADR-RES ovarian
K-562 leukemia = test system: K-562 leukemia
OVCAR-3 ovarian = test system: OVCAR-3 ovarian
EKVX NSCLC = test system: EKVX NSCLC
DU-145 prostate = test system: DU-145 prostate
SK-MEL-2 melanoma = test system: SK-MEL-2 melanoma
MDA-MB-435 = test system: MDA-MB-435
COLO 205 colon = test system: COLO 205 colon
SN12C renal = test system: SN12C renal
CAKI-1 renal = test system: CAKI-1 renal
HCT-116 colon = test system: HCT-116 colon
HCT-15 colon = test system: HCT-15 colon
SK-OV-3 ovarian = test system: SK-OV-3 ovarian
BT-549 breast = test system: BT-549 breast
SNB-75 CNS = test system: SNB-75 CNS
SNB-19 CNS = test system: SNB-19 CNS
HS 578T breast = test system: HS 578T breast
T-47D breast = test system: T-47D breast
UACC-62 melanoma = test system: UACC-62 melanoma
UO-31 renal = test system: UO-31 renal
CCRF-CEM leukemia = test system: CCRF-CEM leukemia
ACHN renal = test system: ACHN renal
OVCAR-8 ovarian = test system: OVCAR-8 ovarian
IGROV1 ovarian = test system: IGROV1 ovarian
786-0 renal = test system: 786-0 renal
MCF7 breast = test system: MCF7 breast
MOLT-4 leukemia = test system: MOLT-4 leukemia
LOX IMVI melanoma = test system: LOX IMVI melanoma
PC-3 prostate = test system: PC-3 prostate
TK-10 renal = test system: TK-10 renal
SK-MEL-5 melanoma = test system: SK-MEL-5 melanoma
NCI-H460 lung = test system: NCI-H460 lung
HCC-2998 colon = test system: HCC-2998 colon
HT29 colon = test system: HT29 colon
SW-620 colon = test system: SW-620 colon
RXF 393 renal = test system: RXF 393 renal
M14 melanoma = test system: M14 melanoma
NCI-H23 lung = test system: NCI-H23 lung
OVCAR-5 ovarian = test system: OVCAR-5 ovarian
OVCAR-4 ovarian = test system: OVCAR-4 ovarian
SF-268 CNS = test system: SF-268 CNS
NCI-H522 lung = test system: NCI-H522 lung
A549 NSCLC = test system: A549 NSCLC
SK-MEL-28 melanoma = test system: SK-MEL-28 melanoma
U251 CNS = test system: U251 CNS
NCI-H226 lung = test system: NCI-H226 lung
HOP-92 NSCLC = test system: HOP-92 NSCLC
A498 renal = test system: A498 renal
RPMI-8226 leukemia = test system: RPMI-8226 leukemia

For N#CCc1nc(-c2ccccc2)n[nH]1, the TGI (SR leukemia) was > 100 µM, the TGI (UACC-257 melanoma) was > 100 µM and the TGI (KM12 colon) was > 100 µM. The TGI (HOP-62 NSCLC) was > 100 µM, the TGI (MDA-N) was > 100 µM and the TGI (MDA-MB-231 breast) was > 100 µM. The TGI (MALME-3M melanoma) was > 100 µM, the TGI (HL-60(TB) leukemia) was > 100 µM and the TGI (SF-295 CNS) was > 100 µM. For the same compound, the TGI (SF-539 CNS) was > 100 µM, the TGI (NCI/ADR-RES ovarian) was > 100 µM and the TGI (K-562 leukemia) was > 100 µM. For the same compound, the TGI (OVCAR-3 ovarian) was > 100 µM, the TGI (EKVX NSCLC) was > 100 µM and the TGI (DU-145 prostate) was > 100 µM. The TGI (SK-MEL-2 melanoma) was > 100 µM, the TGI (MDA-MB-435) was > 100 µM and the TGI (COLO 205 colon) was > 100 µM. For the same compound, the TGI (SN12C renal) was > 100 µM, the TGI (CAKI-1 renal) was > 100 µM and the TGI (HCT-116 colon) was > 100 µM. For the same compound, the TGI (HCT-15 colon) was > 100 µM, the TGI (SK-OV-3 ovarian) was > 100 µM and the TGI (BT-549 breast) was > 100 µM. For the same compound, the TGI (SNB-75 CNS) was > 100 µM, the TGI (SNB-19 CNS) was > 100 µM and the TGI (HS 578T breast) was > 100 µM. For the same compound, the TGI (T-47D breast) was > 100 µM, the TGI (UACC-62 melanoma) was > 100 µM and the TGI (UO-31 renal) was > 100 µM. For the same compound, the TGI (CCRF-CEM leukemia) was > 100 µM, the TGI (ACHN renal) was > 100 µM and the TGI (OVCAR-8 ovarian) was > 100 µM. For the same compound, the TGI (IGROV1 ovarian) was > 100 µM, the TGI (786-0 renal) was > 100 µM and the TGI (MCF7 breast) was > 100 µM. The TGI (MOLT-4 leukemia) was > 100 µM, the TGI (LOX IMVI melanoma) was > 100 µM and the TGI (PC-3 prostate) was > 100 µM. The TGI (TK-10 renal) was > 100 µM, the TGI (SK-MEL-5 melanoma) was > 100 µM and the TGI (NCI-H460 lung) was > 100 µM. For the same compound, the TGI (HCC-2998 colon) was > 100 µM, the TGI (HT29 colon) was > 100 µM and the TGI (SW-620 colon) was > 100 µM. For the same compound, the TGI (RXF 393 renal) was > 100 µM, the TGI (M14 melanoma) was > 100 µM and the TGI (NCI-H23 lung) was > 100 µM. The TGI (OVCAR-5 ovarian) was > 100 µM, the TGI (OVCAR-4 ovarian) was > 100 µM and the TGI (SF-268 CNS) was > 100 µM. The TGI (NCI-H522 lung) was > 100 µM and the TGI (A549 NSCLC) was > 100 µM.

With N/C(=N\S(=O)(=O)c1c(C(F)(F)F)cccc1C(F)(F)F)Nc1ccc(Cl)cc1 the TGI (SR leukemia) was > 100 µM, the TGI (UACC-257 melanoma) was 47.7 µM and the TGI (KM12 colon) was > 100 µM. For the same compound, the TGI (HOP-62 NSCLC) was > 100 µM, the TGI (SK-MEL-28 melanoma) was > 100 µM and the TGI (MDA-N) was > 100 µM. It also gave a TGI (MDA-MB-231 breast) of 48.6 µM, a TGI (MALME-3M melanoma) of 58.4 µM and a TGI (HL-60(TB) leukemia) of 51.9 µM. The TGI (SF-295 CNS) was > 100 µM, the TGI (SF-539 CNS) was > 100 µM and the TGI (NCI/ADR-RES ovarian) was 50.1 µM. For the same compound, the TGI (K-562 leukemia) was > 100 µM, the TGI (OVCAR-3 ovarian) was > 100 µM and the TGI (EKVX NSCLC) was 36.2 µM. The TGI (DU-145 prostate) was > 100 µM, the TGI (SK-MEL-2 melanoma) was 29.3 µM and the TGI (COLO 205 colon) was 33.1 µM. The TGI (SN12C renal) was 78.1 µM, the TGI (HCT-116 colon) was > 100 µM and the TGI (HCT-15 colon) was > 100 µM. For the same compound, the TGI (SK-OV-3 ovarian) was > 100 µM, the TGI (U251 CNS) was 36 µM and the TGI (BT-549 breast) was 96 µM. For the same compound, the TGI (SNB-75 CNS) was > 100 µM, the TGI (SNB-19 CNS) was > 100 µM and the TGI (HS 578T breast) was 68.6 µM. The TGI (T-47D breast) was > 100 µM, the TGI (UACC-62 melanoma) was 50.5 µM and the TGI (NCI-H226 lung) was > 100 µM. The TGI (UO-31 renal) was 6.35 µM, the TGI (ACHN renal) was 56 µM and the TGI (OVCAR-8 ovarian) was 78 µM. The TGI (IGROV1 ovarian) was 60.2 µM, the TGI (786-0 renal) was 74.7 µM and the TGI (MCF7 breast) was > 100 µM. The TGI (MOLT-4 leukemia) was > 100 µM, the TGI (LOX IMVI melanoma) was 48.1 µM and the TGI (PC-3 prostate) was 25.6 µM. For the same compound, the TGI (TK-10 renal) was 65 µM, the TGI (HOP-92 NSCLC) was 43.6 µM and the TGI (SK-MEL-5 melanoma) was 35.6 µM. The TGI (NCI-H460 lung) was > 100 µM, the TGI (HT29 colon) was > 100 µM and the TGI (SW-620 colon) was > 100 µM. For the same compound, the TGI (RXF 393 renal) was > 100 µM, the TGI (M14 melanoma) was > 100 µM and the TGI (NCI-H23 lung) was 30.8 µM. For the same compound, the TGI (A498 renal) was 50.6 µM, the TGI (RPMI-8226 leukemia) was > 100 µM and the TGI (OVCAR-5 ovarian) was 73.1 µM. The TGI (OVCAR-4 ovarian) was > 100 µM, the TGI (SF-268 CNS) was > 100 µM and the TGI (NCI-H522 lung) was 30.6 µM. For the same compound, the TGI (A549 NSCLC) was > 100 µM.

From PubChem BioAssay (NCI)
